Target: T1, human type 1 glycine transporter (GlyT1) (Homo sapiens, UniProt P48067)
T1 construct: T98G cells (glioma cells) expressing human type 1 glycine transporter (GlyT1) were used
T1 sequence (P48067 1-706): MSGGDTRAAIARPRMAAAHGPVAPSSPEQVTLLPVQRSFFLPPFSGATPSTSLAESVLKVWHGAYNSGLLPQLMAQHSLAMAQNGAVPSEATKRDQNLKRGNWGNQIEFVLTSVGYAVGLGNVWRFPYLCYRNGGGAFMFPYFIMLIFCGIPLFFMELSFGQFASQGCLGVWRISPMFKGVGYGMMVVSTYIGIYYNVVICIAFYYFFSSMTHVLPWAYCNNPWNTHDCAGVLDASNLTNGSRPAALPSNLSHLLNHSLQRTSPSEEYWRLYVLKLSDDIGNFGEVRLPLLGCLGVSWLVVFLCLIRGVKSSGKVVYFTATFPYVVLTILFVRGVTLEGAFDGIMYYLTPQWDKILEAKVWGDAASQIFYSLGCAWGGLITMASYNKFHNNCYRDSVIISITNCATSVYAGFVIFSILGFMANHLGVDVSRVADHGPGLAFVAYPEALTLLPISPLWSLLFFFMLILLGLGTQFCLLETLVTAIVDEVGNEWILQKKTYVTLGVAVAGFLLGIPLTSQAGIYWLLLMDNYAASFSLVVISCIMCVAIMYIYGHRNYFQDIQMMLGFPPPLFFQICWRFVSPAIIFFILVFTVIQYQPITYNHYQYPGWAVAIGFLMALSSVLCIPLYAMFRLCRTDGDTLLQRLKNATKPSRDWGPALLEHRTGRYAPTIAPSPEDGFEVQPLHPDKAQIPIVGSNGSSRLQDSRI
Experiment: Glycine uptake inhibition experiment ([3H]glycine uptake)
Assay type: cell-based
Procedure, shortened: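 T98G glioma cells expressing human GlyT1 were pretreated 10 min with compound in HEPES buffer pH 7.4 (0.2% BSA), then incubated with compound plus 250 nM final [3H]glycine for 15 min at room temperature. Intracellular radioactivity was counted after NaOH lysis; 10 μM ALX5407 defined non-specific uptake. IC50 came from 10^−9–10^−5 M curves.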

Row | IC50 (GlyT1) | IC50 (human GlyT1) | Compound
1 | 110 nM | – | CCn1cc(-c2cccc(C(NC(=O)c3cccc(C(F)(F)F)c3Cl)C3(O)CCCC3)c2)cn1 (centres unmarked) [Compound 1, 2-chloro-N-{[3-(1-ethyl-1H-pyrazol-4-yl)phenyl](1-hydroxycyclopentyl)methyl}-3-(trifluoromethyl)benzamide]
2 | 380 nM | – | O=C(NC(c1ccccc1Cl)[C@]1(O)CC[C@@H](F)CC1)c1cc(C(F)(F)F)cnc1Cl (single isomer, unassigned) [Compound 367, 2-chloro-N-[(2-chlorophenyl)(cis-4-fluoro-1-hydroxycyclohexyl)methyl]-5-(trifluoromethyl)pyridine-3-carboxamide]
3 | 300 nM | – | N#Cc1cccc(C(NC(=O)c2nccc(C(F)(F)F)c2Cl)C2(O)CCCC2)c1 (centres unmarked) [Compound 23, 3-chloro-N-[(3-cyanophenyl)(1-hydroxycyclopentyl)methyl]-4-(trifluoromethyl)pyridine-2-carboxamide]
4 | 150 nM | – | O=C(NC(c1cc(Cl)ccn1)C1(O)CCC(F)(F)CC1)c1cccc(C(F)(F)F)c1Cl (single isomer, unassigned) [Compound 351, 2-chloro-N-[(4-chloropyridin-2-yl)(4,4-difluoro-1-hydroxycyclohexyl)methyl]-3-(trifluoromethyl)benzamide]
5 | 2300 nM | – | O=C(NC(c1cccnc1Cl)C1(O)CCC(F)(F)CC1)c1ccc(C(F)(F)F)nc1Cl (single isomer, unassigned) [Compound 344, 2-chloro-N-[(2-chloropyridin-3-yl)(4,4-difluroo-1-hydroxycyclohexyl)methyl]-6-(trifluoromethyl)pyridine-3-carboxamide]
6 | 1100 nM | – | O=C(NC(c1cccc(F)c1Cl)[C@]1(O)CC[C@@H](F)CC1)c1nsc(Cl)c1Cl (single isomer, unassigned) [Compound 271, 4,5-dichloro-N-[(2-chloro-3-fluorophenyl)(cis-4-fluoro-1-hydroxycyclohexyl)methyl]-1,2-thiazol-3-carboxamide]
7 | 1000 nM | – | O=C(NC(c1ccc(F)cc1)C1(O)CCCC1)c1nccc(C(F)(F)F)c1Cl (centres unmarked) [Compound 39, 3-chloro-N-[(4-fluorophenyl)(1-hydroxycyclopentyl)methyl]-4-(trifluoromethyl)pyridine-2-carboxamide]
8 | 250 nM | – | O=C(NC(c1ccccc1Cl)C1(O)CCC(F)(F)CC1)c1nccc(C(F)(F)F)c1Cl (centres unmarked) [Compound 103, 3-chloro-N-[(2-chlorophenyl)(4,4-difluoro-1-hydroxycyclohexyl)methyl]-4-(trifluoromethyl)pyridine-2-carboxamide]
9 | 36 nM | – | CS(=O)(=O)c1ncc(C(F)(F)F)cc1C(=O)NC(c1cccc(F)c1Cl)[C@]1(O)CC[C@@H](F)CC1 (single isomer, unassigned) [Compound 387, N-[(2-chloro-3-fluorophenyl)(cis-4-fluoro-1-hydroxycyclohexyl)methyl]-2-(methylsulfonyl)-5-(trifluoromethyl)pyridine-3-carboxamide]
10 | – | 16 nM | O=C(NC(c1cccc(Cl)n1)C1(O)CCCC1)c1nccc(C(F)(F)F)c1Cl (single isomer, unassigned) [Compound 397, 3-chloro-N-[(6-chloropyridin-2-yl)(1-hydroxycyclopentyl)methyl]-4-(trifluoromethyl)pyridine-2-carboxamide]
11 | 1200 nM | – | O=C(NC(c1cccnc1Cl)C1(O)CCC(F)(F)CC1)c1cc(C(F)(F)F)ncc1Cl (single isomer, unassigned) [Compound 342, 5-chloro-N-[(2-chloropyridin-3-yl)(4,4-difluoro-1-hydroxycyclohexyl)methyl]-2-(trifluoromethyl)pyridine-4-carboxamide]
12 | 1700 nM | – | O=C(NC(c1cccc(F)c1Cl)[C@]1(O)CC[C@@H](F)CC1)c1cccnc1-n1cccn1 (single isomer, unassigned) [Compound 268, N-[(2-chloro-3-fluorophenyl)(cis-4-fluoro-1-hydroxycyclohexyl)methyl]-2-(1H-pyrazol-1-yl)pyridine-3-carboxamide]
13 | 1300 nM | – | O=C(NC(c1cccc(F)c1Cl)[C@]1(O)CC[C@@H](F)CC1)c1ccc(C(F)(F)F)nc1-n1ccnn1 (single isomer, unassigned) [Compound 394, N-[(2-chloro-3-fluorophenyl)(cis-4-fluoro-1-hydroxycyclohexyl)methyl]-2-(1H-1,2,3-triazol-1-yl)-6-(trifluoromethyl)pyridine-3-carboxamide]
14 | 250 nM | – | O=C(NC(c1cc(Cl)ccc1F)[C@]1(O)CC[C@@H](F)CC1)c1nccc(C(F)(F)F)c1Cl (single isomer, unassigned) [Compound 375, 3-chloro-N-[(5-chloro-2-fluroophenyl)(cis-4-fluoro-1-hydroxycyclohexyl)methyl]-4-(trifluoromethyl)pyridine-2-carboxamide]
15 | 95 nM | – | O=C(NC(c1cccc(Cl)c1F)C1(O)CCC(F)(F)CC1)c1ccnc(C(F)(F)F)c1Cl (single isomer, unassigned) [Compound 169, 3-chloro-N-[(3-chloro-2-fluorophenyl)(4,4-difluoro-1-hydroxycyclohexyl)methyl]-2-(trifluoromethyl)pyridine-4-carboxamide]
16 | 370 nM | – | COc1cccc(C(NC(=O)c2nccc(C(F)(F)F)c2Cl)C2(O)CCCC2)c1 (centres unmarked) [Compound 51, 3-chloro-N-[(1-hydroxycyclopentyl)(3-methoxyphenyl)methyl]-4-(trifluoromethyl)pyridine-2-carboxamide]
17 | 110 nM | – | O=C(NC(c1cccc(F)c1Cl)[C@]1(O)CC[C@@H](F)CC1)c1ncc(C(F)(F)F)cc1-n1nccn1 (single isomer, unassigned) [Compound 392, N-[(2-chloro-3-fluorophenyl)(cis-4-fluoro-1-hydroxycyclohexyl)methyl]-3-(2H-1,2,3-triazol-2-yl)-5-(trifluoromethyl)pyridine-2-carboxamide]
18 | 280 nM | – | CCn1cc(-c2cccc(C(NC(=O)c3c(Cl)ccc(C(F)(F)F)c3Cl)C3(O)CCC(F)(F)CC3)c2)cn1 (centres unmarked) [Compound 123, 2,6-dichloro-N-{(4,4-difluoro-1-hydroxycyclohexyl)[3-(1-ethyl-1H-pyrazol-4-yl)phenyl]methyl}-3-(trifluoromethyl)benzamide]
19 | 98 nM | – | O=C(NC(c1cccc(Cl)c1)[C@]1(O)CC[C@@H](F)CC1)c1nccc(C(F)(F)F)c1Cl (stereo partly drawn) [Compound 153, 3-chloro-N-[(3-chlorophenyl)(cis-4-fluoro-1-hydroxycyclohexyl)methyl]-4-(trifluoromethyl)pyridine-2-carboxamide]
20 | 1600 nM | – | COc1cccc(C(=O)NC(c2cccc(F)c2Cl)[C@]2(O)CC[C@@H](F)CC2)c1Cl (single isomer, unassigned) [Compound 289, 2-chloro-N-[(2-chloro-3-fluorophneyl)(cis-4-fluoro-1-hydroxycyclohexyl)methyl]-3-methoxybenzamide]
21 | 250 nM | – | O=C(NC(c1cccc(F)c1)C1(O)CCC(F)(F)CC1)c1nccc(C(F)(F)F)c1Cl (single isomer, unassigned) [Compound 76, 3-chloro-N-[(4,4-difluoro-1-hydroxycyclohexyl)(3-fluorophenyl)methyl]-4-(trifluoromethyl)pyridine-2-carboxamide]
22 | – | 1000 nM | O=C(NC(c1ccccc1Cl)C1(O)CCC(F)(F)CC1)c1ncc(C(F)(F)F)cc1-n1nccn1 (single isomer, unassigned) [Compound 407, N-[(2-chlorophenyl)(4,4-difluoro-1-hydroxycyclohexyl)methyl]-3-(2H-1,2,3-triazol-2-yl)-5-(trifluoromethyl)pyridine-2-carboxamide]
23 | 900 nM | – | O=C(NC(c1cccc(F)c1Cl)[C@]1(O)CC[C@@H](F)CC1)c1nc(C(F)(F)F)ccc1Cl (single isomer, unassigned) [Compound 290, 3-chloro-N-[(2-chloro-3-fluorophenyl)(cis-4-fluoro-1-hydroxycyclohexyl)methyl]-6-(trifluoromethyl)pyridine-2-carboxamide]
24 | 140 nM | – | O=C(NC(c1cccc(-c2cccnc2)c1)C1(O)CCC(F)(F)CC1)c1nccc(C(F)(F)F)c1Cl (centres unmarked) [Compound 146, 3-chloro-N-{(4,4-difluoro-1-hydroxycyclohexyl)[3-(pyridin-3-yl)phenyl]methyl}-4-(trifluoromethyl)pyridine-2-carboxamide]
25 | 320 nM | – | O=C(NC(c1cccc(-c2cnccn2)c1)C1(O)CCC(F)(F)CC1)c1nccc(C(F)(F)F)c1Cl (centres unmarked) [Compound 159, 3-chloro-N-{(4,4-difluoro-1-hydroxycyclohexyl)[3-(pyrazin-2-yl)phenyl]methyl}-4-(trifluoromethyl)pyridine-2-carboxamide]
26 | 100 nM | – | O=C(NC(c1cccc(F)c1Cl)[C@]1(O)CC[C@@H](F)CC1)c1cccc(C(F)(F)F)c1Cl (single isomer, unassigned) [Compound 246, 2-chloro-N-[(2-chloro-3-fluorophenyl)(cis-4-fluoro-1-hydroxycyclohexyl)methyl]-3-(trifluoromethyl)benzamide]

— patent US20160130278A1 (TAISHO PHARMACEUTICAL CO., LTD, priority 2013, published 2016)
